{
  "source": "patent US20260284240A1",
  "about": "“RADIOLABELED COMPOUND FOR USE IN A METHOD OF TREATING CARBONIC ANHYDRASE IX POSITIVE DISEASES” (DEBIOPHARM INTERNATIONAL S.A., priority 2023, published 2026)",
  "key": {"[1]": {"experiment": "Biodistribution of In-111-labeled compounds by SPECT/CT in SK-RC-52 tumor-bearing mice, with or without gelofusine", "type": "in vivo, mouse", "conditions": "mouse, in vivo", "protocol": "(§1) The effect on tumor uptake of prior injection of gelofusine for kidney protection was investigated in mice bearing the SK-RC-52 tumor. Biodistribution was evaluated using in vivo SPECT/CT imaging.\n(§2) The study was performed in female NMRI nude mice (approximately 6 weeks of age) from Janvier Labs, France, housed up to 5 mice per cage.\n(§3) The column was washed with 2 mL water, and then the final product was eluted from the column in EtOH solution (50%) • The sample was formulated in PBS to the final concentration of 150 MBq/mL and 5 nmol/mL.\n(§4) HT-29 cells were cultured in McCoy's 5a Medium Modified (Sigma #M9309). For inoculation of HT-29 cells, cells were harvested, washed twice in PBS and resuspended at 5×10^7 cells/mL in PBS. Cells were kept on ice until inoculation.\n(§5) Animals were anaesthetized (isoflurane, 2-4% in ambient air supplemented with 100% O2) prior to tumor inoculation. The tumor cells (100 μL suspension of either SK-RC-52 cells (2×10^6 cells/animal) or HT-29 cells (5×10^6 cells/animal)) were subcutaneously inoculated in the right flank using a 1-mL syringe equipped with a 27G needle. Tumor growth and animal weight were measured twice per week. Tumor size was measured by caliper and the volume was estimated using the following formula: 0.52×(length×width^2). When tumor sizes reached 150-250 mm^3, animals were randomized into groups (n=3) of similar average tumor volume and body weight.\n(§6) CT was performed with helical scan, 300 ms exposure, reconstruction resolution of 250 μm. SPECT was performed with multi-pinhole scan and a 30 s frame time. For the quantification of the radioactivity uptake, regions of interests (ROIs) were drawn over the tumor, kidney, liver, and heart (estimate of blood) identified on the images. Uptake was expressed as percent of injected dose per gram tissue (% ID/g)."}, "[2]": {"tested_on": "SK-RC-52 tumor", "experiment": "Biodistribution of In-111-labeled compounds by SPECT/CT in SK-RC-52 tumor-bearing mice, with or without gelofusine", "type": "in vivo, mouse", "protocol": "as §1, §2, §3, §4, §5, §6"}},
  "note": "Where two headings read alike, the source gives them in different places. Starred links: 1 amine or outer side, 2 acyl side, 3 side chain; linkers in the order of their positions; H or OH if unused. Positions of bridges follow the written chain, without caps; N, C: chain ends. Non-standard residues stand in square brackets, D forms with d. Residues, ends and D or L forms follow the SMILES beside them. *: point of attachment. Phe(3-NHCO(CH2)3SO2NH2) = N[C@@H](Cc1cccc(NC(=O)CCCS(N)(=O)=O)c1)C(=O)O; DOTA = O=C(O)CN1CCN(CC(=O)O)CCN(CC(=O)*)CCN(CC(=O)O)CC1; mXylylene = c1cc(C[*:1])cc(C[*:2])c1; X1 = O=C(CN1CCN([*:1])CC1)[*:2]",
  "data": [
    {"smiles": "CC(C)C[C@@H]1NC(=O)[C@H](Cc2cccc(NC(=O)CCCS(N)(=O)=O)c2)NC(=O)[C@H](CC(=O)O)NC(=O)[C@H]2CCCN2C(=O)[C@H](CCC(=O)O)NC(=O)[C@@H](NC(=O)[C@H](CCC(N)=O)NC(=O)CN2CCN(C(=O)CN3CCN(CC(=O)O)CCN(CC(=O)O)CCN(CC(=O)O)CC3)CC2)CSCc2cccc(c2)CSC[C@@H](C(N)=O)NC(=O)[C@H](CO)NC(=O)[C@H](Cc2c[nH]c3ccccc23)NC(=O)[C@H]([C@@H](C)O)NC1=O", "note": "[DPI-4452, DOTA-PPAc-Gln-[Cys(3MeBn)-Glu-pro-Asp-Af3(Cpsu)-Leu-Thr-Trp-Ser-Cys]-NH2] ({DOTA}-[X1]QCE[dP]D[Phe(3-NHCO(CH2)3SO2NH2)]LTWSC-NH2; linker 3-12 via mXylylene)", "values": [
      {"measurement": "tissue uptake", "setting": "[1]; SK-RC-52, Mean ± SEM, N=3, read-out: Peak Tumor Uptake", "value": "9.42 ± 1.53", "unit": "%ID/g"},
      {"measurement": "tissue uptake", "setting": "[1]; SK-RC-52 mice, read-out: Peak Kidney uptake", "value": "3.43 ± 0.24", "unit": "%ID/g"},
      {"measurement": "Time to peak uptake in tumor", "setting": "[2]; SK-RC-52", "value": 1, "unit": "h"},
      {"measurement": "% remaining tumor uptake at 24 h p.i.", "setting": "[2]; SK-RC-52, Mean ± SEM", "value": "73.3 ± 0.8", "unit": "%"},
      {"measurement": "Blood uptake at 4 h p.i.", "setting": "[2]; SK-RC-52 mice", "value": "0.05 ± 0.01", "unit": "% ID/g"},
      {"measurement": "Kidney uptake at 24 h p.i.", "setting": "[2]; SK-RC-52 mice", "value": "0.95 ± 0.05", "unit": "% ID/g"},
      {"measurement": "Liver uptake at 4 h p.i.", "setting": "[2]; SK-RC-52 mice", "value": "0.18 ± 0.04", "unit": "% ID/g"}
    ]}
  ]
}
